# Experiments:
# Format in all cases: in vivo
# [1] = test system: Male Syrian hamsters (Mesocricetus auratus); assay: Liver cholesterol (HPLC) in cholesterol-fed hamsters, ezetimibe (K00 04513) plus C1; settings: feed +0.1% CH; for Liver Cholesterol %: cholesterol ctr. = 100
# Method: (§1) Hamsters were used for the biological testing of the combination product of the invention. Male Syrian hamsters (Mesocricetus auratus) from 8 to 10 weeks of age were used for the experiment. The animals received a standard feed (Teklad 8604M) supplemented with 0.1% cholesterol. An additional normal control group received only standard feed. The test substances were administered orally by gavage once a day on 12 consecutive days, and the control group was treated with the vehicle. Feces were collected on days 5 and 6 of the experiment for bile acid analysis. Retroorbital blood was taken from the animals on day 10 of the experiment, and the lipid levels in the plasma were determined. Radioactive tracers were administered orally to the animals on day 11 of the experiment to determine the cholesterol absorption in analogy to the method described by Zilversmith et al. On day 13 of the experiment, the animals were sacrificed, and the animals' livers were removed for cholesterol analysis and preparation of microsomes. The 7α-hydroxylase activity was determined in the liver microsomes ex vivo by a modified method of Hylemon et al. [table]
# [2] = test system: Male Syrian hamsters (Mesocricetus auratus); assay: Liver cholesterol (HPLC) in cholesterol-fed hamsters, C1 with Caromax; settings: 30 mg/kg/d C1, feed +0.1% CH
# Method: as §1, with “[table] Liver cholesterol (HPLC)=1×500 mg in EtOH/KOH (sample is also used for CH synthesis)” for “[table]”
# [3] = test system: Male Syrian hamsters (Mesocricetus auratus); assay: Liver cholesterol synthesis (14C-octanoate i.v.) in cholesterol-fed hamsters, C1 with Caromax; settings: 30 mg/kg/d C1, feed +0.1% CH
# Method: Hamsters were used for the biological testing of the combination product of the invention. Male Syrian hamsters (Mesocricetus auratus) from 8 to 10 weeks of age were used for the experiment. The animals received a standard feed (Teklad 8604M) supplemented with 0.1% cholesterol. An additional normal control group received only standard feed. The test substances were administered orally by gavage once a day on 12 consecutive days, and the control group was treated with the vehicle. [table] Cholesterol Synthesis i.v. administration of ^14C-octanoate 10 μCi/100 g of animal 1 hour before the end of the experiment (isoflurane anesthesia) Removal of 2×500 mg of liver in EtOH/KOH
# [4] = test system: Male Syrian hamsters (Mesocricetus auratus); assay: Plasma lipids in cholesterol-fed hamsters, ezetimibe (K00 04513) plus C1; settings: feed +0.1% CH; for HDL % / Plasma parameter Cholesterol % / Plasma parameter LDL % / Plasma parameter Triglycerides %: cholesterol ctr. = 100
# Method: as §1
# [5] = test system: Male Syrian hamsters (Mesocricetus auratus); assay: Plasma lipids in cholesterol-fed hamsters, combination of compound C1 with Caromax; settings: 30 mg/kg/d C1, feed +0.1% CH
# Method: as §1, with “[table] Male Syrian hamsters (Mesocricetus auratus) supplied by Harlan 80-100 g at the start of adaptation Safety parameters (CH; TG; ALAT/ASAT; AP; HDL/LDL) Preliminary value and 2 days before end of the experiment (isoflurane anesthesia) by retroorbital blood sampling” for “[table]”
# [6] = test system: Male Syrian hamsters (Mesocricetus auratus); assay: Cholesterol absorption (3H-sitosterol/14C-cholesterol, feces) in hamsters, ezetimibe (K00 04513) plus C1; settings: feed +0.1% CH; for CH absorption % of ctr.: normal ctr. = 100.0
# Method: as §1
# [7] = group 3, 0.1 mg/kg/d K 00 04513
# [8] = group 4, 0.3 mg/kg/d K 00 04513
structure (smiles),measurement,setting,value
O=C(CCCCCCCCCCNC(=O)[C@H](O)[C@@H](O)[C@H](O)[C@H](O)CO)Nc1ccccc1[C@@H](Nc1ccccn1)[C@H](c1ccccn1)[C@H](O)c1ccccc1 [C1],Liver Cholesterol,"[1]; group 6, 3 mg/kg/d C1",10.99 mg/g
same,Liver Cholesterol %,"[1]; group 6, 3 mg/kg/d C1",100%
same,Liver Cholesterol,"[1]; group 7, 10 mg/kg/d C1",9.50 mg/g
same,Liver Cholesterol %,"[1]; group 7, 10 mg/kg/d C1",86%
same,Liver Cholesterol,"[1]; group 8, 30 mg/kg/d C1",7.18 mg/g
same,Liver Cholesterol %,"[1]; group 8, 30 mg/kg/d C1",65%
same,Liver Cholesterol,[2],14.72 mg/g
same,Liver Cholesterol %,[2]; hyperlip. ctr. = 100,54%
same,Liver Sterol biosynthesis,[3],73 dpm/g/h
same,Liver Sterol biosynthesis %,[3]; normal ctr. I = 100,18%
same,HDL,"[4]; group 6, 3 mg/kg/d C1",2.20 mmol/L
same,Plasma parameter Cholesterol,"[4]; group 6, 3 mg/kg/d C1",3.92 mmol/L
same,Plasma parameter LDL,"[4]; group 6, 3 mg/kg/d C1",0.98 mmol/L
same,Plasma parameter Triglycerides,"[4]; group 6, 3 mg/kg/d C1",1.84 mmol/L
same,HDL %,"[4]; group 6, 3 mg/kg/d C1",102%
same,Plasma parameter Cholesterol %,"[4]; group 6, 3 mg/kg/d C1",96%
same,Plasma parameter LDL %,"[4]; group 6, 3 mg/kg/d C1",87%
same,Plasma parameter Triglycerides %,"[4]; group 6, 3 mg/kg/d C1",90%
same,HDL,"[4]; group 7, 10 mg/kg/d C1",2.00 mmol/L
same,Plasma parameter Cholesterol,"[4]; group 7, 10 mg/kg/d C1",3.70 mmol/L
same,Plasma parameter LDL,"[4]; group 7, 10 mg/kg/d C1",0.78 mmol/L
same,Plasma parameter Triglycerides,"[4]; group 7, 10 mg/kg/d C1",2.35 mmol/L
same,HDL %,"[4]; group 7, 10 mg/kg/d C1",93%
same,Plasma parameter Cholesterol %,"[4]; group 7, 10 mg/kg/d C1",90%
same,Plasma parameter LDL %,"[4]; group 7, 10 mg/kg/d C1",69%
same,Plasma parameter Triglycerides %,"[4]; group 7, 10 mg/kg/d C1",116%
same,HDL,"[4]; group 8, 30 mg/kg/d C1",2.02 mmol/L
same,Plasma parameter Cholesterol,"[4]; group 8, 30 mg/kg/d C1",3.66 mmol/L
same,Plasma parameter LDL,"[4]; group 8, 30 mg/kg/d C1",0.80 mmol/L
same,Plasma parameter Triglycerides,"[4]; group 8, 30 mg/kg/d C1",2.02 mmol/L
same,HDL %,"[4]; group 8, 30 mg/kg/d C1",94%
same,Plasma parameter Cholesterol %,"[4]; group 8, 30 mg/kg/d C1",89%
same,Plasma parameter LDL %,"[4]; group 8, 30 mg/kg/d C1",71%
same,Plasma parameter Triglycerides %,"[4]; group 8, 30 mg/kg/d C1",99%
same,Cholesterol,[5],3.58 mmol/L
same,HDL-cholesterol,[5],2.42 mmol/L
same,LDL-cholesterol,[5],0.88 mmol/L
same,Triglycerides,[5],1.49 mmol/L
same,Cholesterol %,[5]; hyperlip. ctr. = 100,89%
same,HDL-cholesterol %,[5]; hyperlip. ctr. = 100,96%
same,LDL-cholesterol %,[5]; hyperlip. ctr. = 100,75%
same,Triglycerides %,[5]; hyperlip. ctr. = 100,102%
same,CH absorption % absorption,"[6]; group 6, 3 mg/kg/d C1",39.6%
same,CH absorption % of ctr.,"[6]; group 6, 3 mg/kg/d C1",±80.9%
same,CH absorption % absorption,"[6]; group 7, 10 mg/kg/d C1",49.1%
same,CH absorption % of ctr.,"[6]; group 7, 10 mg/kg/d C1",±100.1%
same,CH absorption % absorption,"[6]; group 8, 30 mg/kg/d C1",38.3%
same,CH absorption % of ctr.,"[6]; group 8, 30 mg/kg/d C1",±78.2%
"O=C1[C@H](CC[C@H](O)c2ccc(F)cc2)[C@@H](c2ccc(O)cc2)N1c1ccc(F)cc1 [K 00 04513, ezetimibe, reference compound]",Liver Cholesterol,[1]; [7],11.52 mg/g
same,Liver Cholesterol %,[1]; [7],105%
same,Liver Cholesterol,[1]; [8],2.00 mg/g
same,Liver Cholesterol %,[1]; [8],18%
same,Liver Cholesterol,"[1]; group 5, 1 mg/kg/d K 00 04513",1.78 mg/g
same,Liver Cholesterol %,"[1]; group 5, 1 mg/kg/d K 00 04513",16%
same,HDL,[4]; [7],1.98 mmol/L
same,Plasma parameter Cholesterol,[4]; [7],3.73 mmol/L
same,Plasma parameter LDL,[4]; [7],1.06 mmol/L
same,Plasma parameter Triglycerides,[4]; [7],1.99 mmol/L
same,HDL %,[4]; [7],92%
same,Plasma parameter Cholesterol %,[4]; [7],91%
same,Plasma parameter LDL %,[4]; [7],94%
same,Plasma parameter Triglycerides %,[4]; [7],98%
same,HDL,[4]; [8],1.92 mmol/L
same,Plasma parameter Cholesterol,[4]; [8],2.99 mmol/L
same,Plasma parameter LDL,[4]; [8],0.40 mmol/L
same,Plasma parameter Triglycerides,[4]; [8],1.87 mmol/L
same,HDL %,[4]; [8],89%
same,Plasma parameter Cholesterol %,[4]; [8],73%
same,Plasma parameter LDL %,[4]; [8],35%
same,Plasma parameter Triglycerides %,[4]; [8],92%
same,HDL,"[4]; group 5, 1 mg/kg/d K 00 04513",1.71 mmol/L
same,Plasma parameter Cholesterol,"[4]; group 5, 1 mg/kg/d K 00 04513",2.53 mmol/L
same,Plasma parameter LDL,"[4]; group 5, 1 mg/kg/d K 00 04513",0.23 mmol/L
same,Plasma parameter Triglycerides,"[4]; group 5, 1 mg/kg/d K 00 04513",1.79 mmol/L
same,HDL %,"[4]; group 5, 1 mg/kg/d K 00 04513",80%
same,Plasma parameter Cholesterol %,"[4]; group 5, 1 mg/kg/d K 00 04513",62%
same,Plasma parameter LDL %,"[4]; group 5, 1 mg/kg/d K 00 04513",20%
same,Plasma parameter Triglycerides %,"[4]; group 5, 1 mg/kg/d K 00 04513",88%
same,CH absorption % absorption,[6]; [7],47.4%
same,CH absorption % of ctr.,[6]; [7],±96.8%
same,CH absorption % absorption,[6]; [8],15.6%
same,CH absorption % of ctr.,[6]; [8],±31.8%
same,CH absorption % absorption,"[6]; group 5, 1 mg/kg/d K 00 04513",5.8%
same,CH absorption % of ctr.,"[6]; group 5, 1 mg/kg/d K 00 04513",±11.9%

# — US20030158094A1, “Combination product of an aryl-substituted propanolamine derivative with at least one other active ingredient and the use of the product” (priority 2001, published 2003)
